Two molecules from US20230381249A1, “PROBIOTIC STRAIN FOR COUNTERING CARIES PATHOGENS” (The Governing Council of the University of Toronto, priority 2022, published 2023) can be followed below.

This experiment has as its system S. mutans S125 biofilms. The experiment can be described thus: Static microtiter plate biofilm killing assay, mono-species. The settings on record: for Biofilm cells killed: 24-h-old S. mutans S125 biofilm, strains 10^7 CFU/ml, chlorhexidine 10X MIC. The experiment is classed as cell-based, Streptococcus mutans. How it is done: Static biofilms of S. mutons were developed on polystyrene microtiter plates by inoculating 300 μl of BHI medium with 10 μl (10^6 CFU/ml) of S. mutons S125 from an overnight culture. After 24 h of growth, the planktonic phase was carefully removed, and fresh bacteriocin-producing medium (BAC7, BAC8) containing chlorhexidine (10×MIC), BLIS M18® (10^7 CFU/ml), BLIS K12® (10^7 CFU/ml) or VAR6 (10^7 CFU/ml) was overlayed onto established biofilms and the plates were incubated for 24 h at 37° C. The upper phase was then removed, and the biofilms were washed with sterile phosphate-buffered saline (PBS, pH 7.2) and dislodged by gentle scraping using sterile pipette tips. Biofilm cells were serially diluted and plated on BHI-erythromycin agar plates. Colonies of S. mutons were counted after 48 h of incubation at 37° C. in air with 5% CO2. All assays were performed in triplicate from three independent cultures. For the fungal-bacterial assay, biofilms were developed in Yeast extract-Peptone-Glycerol (YPG) medium and using a mixture of S. mutons/Candida albicans at a ratio of 1:1. For the dental plaque assay, biofilms were developed in BHI broth and using BHI plaque suspension supplemented with S. mutons (approx. 10^5 CFU/ml).

In the case of `[H]/N=C(\N/C(=N/[H])NCCCCCCNC(=N)NC(=N)Nc1ccc(Cl)cc1)Nc1ccc(Cl)cc1` [chlorhexidine], the Biofilm cells killed (24 h treatment in BAC7) is 91.6%±3.29 and the Biofilm cells killed (24 h treatment in BAC8) is recorded as 90.1%±2.89.

B1: SalE4: Multipeptide lantibiotic bacteriocin of VAR6 composed of Pep1, Pep2, Pep3 and Pep4 (SEQ ID NOs 5-8) (protein, listed as Streptococcus salivarius)
chain 1: MAKNTSRPEIDSLSFEVENQELSGKSGSGWFTAVQLTLAGRCGRWFTGSFECTTNNVKCG
chain 2: MRKNNNRKEIDTLDFEVKNQELSGKSGSGWFTAVQLTLAGRCGRWFTGSYECTTNNVKCG
chain 3: MKSKKVNTEIDTLEFEIDNQELNGTSGSGWWYTAFKMTLAGRCGLCFTCSYECTTNNVHC
chain 4: MKQDNFEIDSLDYEINSQELNGKSAAGWSTAVRLTVQGRCGWWFTHSYECTSPNVRCG
modifications: lantibiotic post-translational modifications
Take B1: the “Killing of S. mutans and inhibition of S. mutans biofilm growth” value (BAC7 and BAC8 medium, and in situ in the mouth of an individual) is “kill S. mutans, and inhibit the growth of S. mutans biofilms”.
